Article PMC9851200, “Multiparameter phenotypic screening for endogenous TFEB and TFE3 translocation identifies novel chemical series modulating lysosome function” (Autophagy, 2022)
Like-named read-outs stand apart in the source and are kept apart here.

Assays:
[1] = tested on: endogenous TFEB; test: TFEB nuclear translocation, immunocytochemistry high-content imaging; type: cell-based; settings: PKIS2 primary screening
[2] = tested on: SH-SY5Y cells; also: reference of the scale not given here
[3] = tested on: SH-SY5Y cells; test: AK (adenylate kinase) release ToxiLight cytotoxicity assay; settings: PKIS2 primary screening; also: reference of the scale not given here
[4] = tested on: endogenous TFE3; test: TFE3 nuclear translocation, immunocytochemistry high-content imaging; type: cell-based; settings: PKIS2 primary screening
[5] = tested on: SH-SY5Y cells; test: Nuclear count from microscopy images (cellular growth and toxicity); settings: PKIS2 primary screening; also: reference of the scale not given here
[6] = PKIS2 primary screening, DQ Red BSA intensity
[7] = PKIS2 primary screening, DQ Red BSA spot count

Structure (SMILES) | TFEB % [1] [%] | DQ Intensity ([2]; PKIS2 primary screening) | DQ Spot ([2]; PKIS2 primary screening) | AK [3] | TFE3 % [4] [%] | Nuclear Count [5] | DQ Intensity [2, 6] | DQ Spot [2, 7] | DQ Intensity [2] | DQ Spot [2]
CCn1c(-c2ccncc2)nc2cnccc21 [UNC10225204A] | 11.18 | 98.92 | 103.23 | 74.70 | 12.32 | 104.87 |  |  |  | 
CCc1nc(-c2cccc(N(C)S(=O)(=O)c3ccccc3)c2)c(-c2ccnc(Nc3ccc(N4CCN(C(C)=O)CC4)nc3)n2)s1 [UNC10225205A] | 7.99 | 90.69 | 101.49 | 111.97 | 16.25 | 89.51 |  |  |  | 
CCn1c(-c2nonc2N)nc2cncc(CNC3CCNCC3)c21.Cl [UNC10225211A] | 4.17 | 95.76 | 101.16 | 88.65 | 12.65 | 84.35 |  |  |  | 
CN1C(=O)C(Nc2cc(Cl)c(O)c(Cl)c2)=C(c2ccc(Cl)cc2)C1=O [UNC10225212A] | 3.71 |  |  | 103.32 | 7.81 | 107.72 | 96.22 | 97.02 |  | 
COc1nccc(-c2c(-c3ccc(F)cc3)ncn2CCCN2CCOCC2)n1 [UNC10225213A] | 5.79 | 119.56 | 105.70 | 78.43 | 16.14 | 107.77 |  |  |  | 
Cc1occc1-c1nc(N)c(OC[C@@H](N)Cc2c[nH]c3ccccc23)cc1-c1cc2c(C)n[nH]c2cn1 [UNC10225217A] | 6.02 | 96.09 | 101.21 | 91.49 | 15.99 | 82.67 |  |  |  | 
Fc1cc(Cl)ccc1Nc1ccnc2cc(-c3ccc(CN4CCCCC4)o3)ccc12 [UNC10225220A] | 3.77 |  |  | 82.41 | 18.00 | 76.92 | 113.72 | 129.26 |  | 
Cc1ccc2c(-c3ccnc(Nc4ccc(C(F)(F)F)cc4)n3)cnn2n1 [UNC10225224A] | 10.89 | 85.12 | 93.95 | 79.85 | 15.88 | 89.44 |  |  |  | 
Cc1c(Cn2c(C)c(C)n3c(=O)cc(N4CCOCC4)nc23)cccc1C(F)(F)F [UNC10225225A] | 3.43 | 84.00 | 96.71 | 106.72 | 8.46 | 111.32 |  |  |  | 
CN(C)CCOc1ccc(-c2cc(-c3c[nH]nc3-c3ccccn3)ccn2)cc1 [UNC10225226A] | 11.71 |  |  | 93.65 | 7.10 | 49.06 | 136.49 | 114.20 |  | 
Cc1ccc(C)c(NC(=O)Nc2ccc(C)c(-c3ccc(C(=O)Nc4ccncc4)cc3)c2)c1 [UNC10225228A] | 7.17 | 84.26 | 79.30 | 74.48 | 10.54 | 105.64 |  |  |  | 
COCCNC(=O)c1ccc(-c2cc(C(=O)NC3CC3)cc(F)c2C)cc1 [UNC10225229A] | 15.26 | 100.76 | 101.89 | 73.51 | 7.62 | 111.58 |  |  |  | 
O=C(c1ccc(-c2cc(-c3c[nH]nc3-c3ccccn3)ccn2)cc1)N1CCCC1 [UNC10225230A] | 9.58 |  |  | 75.56 | 11.53 | 86.33 | 81.19 | 99.92 |  | 
O=c1cc(N2CCOCC2)nc2n(Cc3ccccc3F)ccn12 [UNC10225231A] | 4.37 | 110.36 | 111.39 | 121.63 | 8.12 | 97.25 |  |  |  | 
O=C(Nc1cccc(-c2nn3ncccc3c2-c2ccnc(Nc3ccccc3)n2)c1)c1c(F)cccc1F [UNC10225232A] | 3.87 | 89.13 | 101.26 | 143.10 | 11.89 | 127.09 |  |  |  | 
COc1cc2nccc(Nc3ccc(OCc4ccc(NC(C)=O)cc4)cc3)c2cc1OC.Cl [UNC10225233A] | 5.84 |  |  | 100.23 | 18.79 | 125.55 | 120.40 | 99.45 |  | 
C[C@@H](Oc1cc(-n2cnc3cc(-c4ccnc(NCCS(C)(=O)=O)c4)ccc32)sc1C(N)=O)c1ccccc1Cl [UNC10225234A] | 11.46 | 121.28 | 93.41 | 97.61 | 12.54 | 68.66 |  |  |  | 

Structure (SMILES) | TFEB % [1] [%] | DQ Intensity ([2]; PKIS2 primary screening) | DQ Spot ([2]; PKIS2 primary screening) | AK [3] | TFE3 % [4] [%] | Nuclear Count [5] | DQ Intensity [2, 6] | DQ Spot [2, 7] | DQ Intensity [2] | DQ Spot [2]
FC(F)(F)c1ccc(-c2cc(-c3c[nH]nc3-c3ccccn3)ccn2)cc1 [UNC10225241A] | 3.57 |  |  | 109.99 | 6.11 | 106.44 | 101.49 | 108.48 |  | 
Cc1ccccc1-c1cc(-c2c[nH]nc2-c2ccccn2)ccn1 [UNC10225243A] | 4.36 |  |  | 94.72 | 14.74 | 90.96 | 62.92 | 82.05 |  | 
CC(=O)c1c(-c2ccncc2)[nH]c(-c2ccncc2)c1C [UNC10225248A] | 5.93 | 75.03 | 97.66 | 107.07 | 12.82 | 71.54 |  |  |  | 
Fc1ccc(-c2nn3c(OCC(F)(F)F)cccc3c2-c2ccncc2)cc1 [UNC10225249A] | 6.54 |  |  | 70.84 | 7.21 | 84.48 | 115.73 | 116.42 |  | 
COc1cc2c(Nc3ccc(NC(=O)c4ccccc4)cc3)ncnc2cc1OCCCN1CCOCC1 [UNC10225250A] | 4.27 |  |  | 83.23 | 6.21 | 140.08 |  |  | 81.48 | 82.98
Cl.c1ccc(-c2n[nH]cc2-c2ccnc(-c3ccc(CN4CCOCC4)cc3)c2)nc1 [UNC10225251A] | 7.11 |  |  | 76.02 | 7.21 | 93.63 | 80.00 | 92.60 |  | 
Cc1ccccc1CC(=O)N1CCc2cc(-c3cn(C)c4ncnc(N)c34)ccc21 [UNC10225254A] | 10.80 | 93.20 | 89.69 | 77.66 | 19.37 | 109.34 |  |  |  | 
CN(C)CCN(C)C(=O)c1cc(-c2ccncc2)c(-c2ccc(Cl)c(O)c2)o1.Cl.Cl [UNC10225256A] | 10.97 | 171.47 | 68.22 | 88.55 | 22.07 | 130.04 |  |  |  | 
O=C(O)C(F)(F)F.O=c1[nH]ccc2nc(N[C@@H]3CCNC3)nc(Nc3cc(Cl)cc(Cl)c3)c12 [UNC10225257A] | 7.01 | 65.99 | 83.26 | 117.20 | 8.28 | 111.57 |  |  |  | 
CC(C)N1CCC(n2cnc(-c3ccc(F)cc3)c2-c2ccnc(N)n2)CC1 [UNC10225258A] | 5.04 | 110.79 | 99.41 | 107.69 | 12.02 | 83.47 |  |  |  | 
NC(=O)c1sc(-n2cnc3ccccc32)cc1OCc1ccccc1F [UNC10225260A] | 10.02 | 138.58 | 126.89 | 77.77 | 15.10 | 92.38 |  |  |  | 
COc1cc2ncnc(Nc3ccc(OCc4ccccc4Br)c(Cl)c3)c2cc1OC.Cl [UNC10225261A] | 4.00 |  |  | 120.37 | 8.49 | 123.73 | 96.30 | 117.72 |  | 
C[C@@H](Oc1cc(-n2cnc3cc(-c4ccncc4)ccc32)sc1C(N)=O)c1ccccc1Cl [UNC10225262A] | 9.74 | 208.10 | 109.28 | 125.08 | 14.34 | 39.15 |  |  |  | 
Cc1ccc(NC(=O)c2cccc(C#N)c2)cc1-c1ccc(C(=O)Nc2ccncc2)cc1 [UNC10225263A] | 13.51 | 106.14 | 106.02 | 76.98 | 18.65 | 75.93 |  |  |  | 
NCCCC(NC(=O)c1cc(Br)c(-c2ccnc3[nH]ccc23)s1)c1ccccc1.O=C(O)C(F)(F)F.O=C(O)C(F)(F)F (stereo not drawn) [UNC10225265A] | 4.66 |  |  | 80.18 | 12.13 | 128.28 | 112.08 | 100.65 |  | 
O=C(O)C(F)(F)F.O=C(O)C(F)(F)F.O=c1[nH]ccc2nc(N[C@@H]3CCCNC3)nc(Nc3ccc(S(=O)(=O)N4CCOCC4)cc3)c12 [UNC10225269A] | 8.33 | 101.94 | 104.22 | 88.07 | 12.97 | 106.18 |  |  |  | 
COc1cc2c(Nc3cccc(NC(=O)c4ccccc4)c3)ncnc2cc1OCCCN1CCOCC1 [UNC10225271A] | 3.87 |  |  | 98.71 | 10.54 | 122.91 | 90.70 | 104.52 |  | 
